Columns and labels:
[1] = tested on: B. bovis; assay: effect of 17-DMAG on host erythrocytes: parasite subculture in pretreated bovine RBC; assay type: cell-based, Babesia bovis; conditions: bovine RBC incubated with 1 μM for 3 h, parasitemia 4 days
Description: (§1) Prior to the subculture of parasites, bovine and equine RBC were incubated with 1 μM of 17-DMAG for 3 h. The RBC were washed three times with PBS and mixed with B. bovis and T. equi parasitized RBC to obtain 1% parasitemia (infected RBC). Subsequently, 100 μl of infected RBC was added to 900 μl of complete medium in a 24-well plate. The untreated erythrocytes were used as a control. The parasitemia was monitored daily via microscopy observation of a Giemsa-stained blood smear for 4 days. Furthermore, the effect of 17-DMAG on mice was evaluated using 8-week-old BALB/c mice. Groups 1 and 2, consisting of three mice each, received intraperitoneal injections of 17-DMAG at a concentration of 15 and 30 mg/kg BW, respectively, for 5 days. One group (three mice) remained as an untreated control.

[2] = introduction, background statement; ref Jilani et al., 2013; cited from earlier work
[3] = effect of 17-DMAG on uninfected mice; assay type: in vivo, BALB/c mice
Description: as §1

[4] = tested on: NIH/3T3 cells; assay: cytotoxicity (drug-exposure viability) assay, CCK-8; assay type: cell-based, mouse; conditions: for IC50: Mus musculus, NIH3T3, NIH/3T3, 24 h exposure, CCK-8, read-out: IC50 on cell line NIH/3T3
Description: Each medium was supplemented with 10% fetal bovine serum, 0.5% penicillin/streptomycin (Gibco, Life Technologies, USA), and an additional 1% glutamine. The medium was changed every 3–4 days and incubated until approximately 80% confluent. The cells were free from mycoplasma contamination after being checked by staining with DAPI (Sigma-Aldrich, USA). The detachment of cells from the culture flask was done using TrypLE™ Express (Gibco, Life Technologies, USA) after washing two times with Dulbecco's phosphate-buffered saline (DPBS). Subsequently, the counting of viable cells was carried out using a Neubauer improved C-Chip (NanoEntek Inc., Korea) after staining with 0.4% trypan blue solution. The drug-exposure viability assay was performed in accordance with the recommendation of the Cell Counting Kit-8 (CCK-8, Dojindo, Japan). Briefly, the assay was carried out using a 96-well plate at 37 °C in a humidified incubator with 5% CO2. One hundred microliters of cells at a density of 5 × 10^4 cells/ml was seeded per well and allowed to attach to the plate for 24 h. […] The exposure of drugs was carried out for 24 h, followed by the addition of 10 μl of CCK-8. The plate was further incubated for 3 h, and the absorbance was measured at 450 nm using a microplate reader.

[5] = tested on: T. equi; assay: effect of 17-DMAG on host erythrocytes: parasite subculture in pretreated equine RBC; assay type: cell-based, Theileria equi; conditions: equine RBC incubated with 1 μM for 3 h, parasitemia 4 days
Description: as §1

[6] = tested on: B. microti (Munich strain); assay: inhibition assay using a B. microti-infected mouse model; assay type: in vivo, BALB/c mice; conditions: 5 consecutive days; for day p.i. on which parasite no longer detected in blood smears via microscopy (parasite clearance): 17-DMAG + DA 15 + 15, 17-DMAG + AV 15 + 10, DA + AV 15 + 10 mg/kg BW
Description: B. microti (Munich strain) was recovered from -80 °C stock in two 6-week female Balb/c mice (Clea, Japan). The parasitemia was monitored every 2 days. […] The inhibitory effect of 17-DMAG was also determined using a B. microti mouse model according to the previous protocol ([Goo et al., 2010]). Briefly, 35 female BALB/c mice aged 8 weeks received an intraperitoneal injection of 1 × 10^7 of B. microti-infected RBC and were divided into seven groups. Another group consisting of five mice was kept uninfected and untreated as a control. The multiplication of B. microti was observed from blood smears after staining with Giemsa using a light microscope. The drug treatment was initiated to all infected mice on day five, after the parasitemia reached approximately 1%, and continue to the total of five consecutive days. Group 1 was treated with 4% DMSO in saline water as a control intraperitoneally. […] The parasitemia was estimated from Giemsa-stained blood smears using microscopy in approximately 5000 RBC. Furthermore, the hematology profiles including RBC, hemoglobin, and hematocrit were measured from 10 μl of mouse blood using an automatic hematology analyzer (Celltac α MEK-6450, Nihon Kohden, Tokyo, Japan). The rate of parasitemia, hematology profiles, and mouse body weight was monitored for 60 days. The experiment was repeated once so each group contained 10 mice. […] Combination index (CI) values for the drug combination were calculated using CompuSyn software ([Chou, 2006]). […] The differences among groups regarding the parasitemia, hematology profiles, and body weight in the B. microti-infected mouse model were analyzed using Student's t-test, available in GraphPad Prism software. The difference was considered significant if P < 0.05.

[7] = 17-DMAG 30, DA 25, AV 20 mg/kg BW

| Structure (SMILES) | multiplication of B. bovis in 17-DMAG-treated RBC versus normal RBC [1] | solubility [2] | mouse body weight ([3]; 15 mg/kg BW intraperitoneal for 5 days) | mouse body weight ([3]; 30 mg/kg BW intraperitoneal for 5 days, day 10 post treatment, not significantly different from control) | IC50 [4] [µM] | multiplication of T. equi in 17-DMAG-treated RBC versus normal RBC [5] | peak parasitemia ([6]; 17-DMAG 30 mg/kg BW intraperitoneal, peak on day 10 p.i., 10 mice) [%] | day p.i. on which parasite no longer detected in blood smears via microscopy (parasite clearance) [6, 7] [day p.i.] | inhibition of the multiplication of B. microti in mice ([6]; 17-DMAG 30, DA 25, AV 20 mg/kg BW, combinations 17-DMAG 15 with DA 15 or AV 10 mg/kg BW) | inhibition on NIH/3T3 cell viability ([4]; at a concentration of 40 μM, separate assay) |
| --- | --- | --- | --- | --- | --- | --- | --- | --- | --- | --- |
| CO[C@H]1/C=C\C=C(/C)C(=O)NC2=CC(=O)C(NCCN(C)C)=C(C[C@@H](C)C[C@H](OC)[C@H](O)[C@@H](C)/C=C(\C)[C@@H]1OC(N)=O)C2=O [17-DMAG, 17-dimethylaminoethylamino-17-demethoxygeldanamycin] | did not significantly differ | water soluble | did not show any effect | reduced slightly | 15.5 ± 4 | did not significantly differ | 4.7 ± 2.0 | 36 | effectively inhibited |  |
| O=C1C(O)=C([C@H]2CC[C@H](c3ccc(Cl)cc3)CC2)C(=O)c2ccccc21 [AV, atovaquone] |  |  |  |  | > 40 |  |  | ≤ 28 |  | did not show any inhibition |
